Usually EC50 stands for the concentration that produces a half-maximal response.

The structures appear in SMILES notation. Structures can show the parent of a compound that is named as a salt.

Chain of human DP2 (Q9Y5Y4 whole entry): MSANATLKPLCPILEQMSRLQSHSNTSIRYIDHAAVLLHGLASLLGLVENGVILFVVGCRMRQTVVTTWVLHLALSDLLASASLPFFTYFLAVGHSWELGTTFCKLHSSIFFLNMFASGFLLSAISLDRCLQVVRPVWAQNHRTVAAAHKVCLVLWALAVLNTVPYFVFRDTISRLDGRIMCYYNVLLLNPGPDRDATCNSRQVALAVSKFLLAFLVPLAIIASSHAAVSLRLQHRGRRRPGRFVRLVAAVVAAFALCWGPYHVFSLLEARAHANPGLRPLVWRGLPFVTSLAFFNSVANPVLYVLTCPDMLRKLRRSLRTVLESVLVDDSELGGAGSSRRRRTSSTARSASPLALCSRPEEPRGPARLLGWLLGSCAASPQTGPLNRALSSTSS

In the first assay the target is human DP2 (Homo sapiens (Human), UniProt Q9Y5Y4). The assay can be described thus: DP-2 Binding Inhibition Assay (3H-PGD2 binding to membranes of K562 cells expressing DP2). As to conditions: EC50 (Nm) 1% HSA, inhibition of 3H-PGD2 binding, 1% HSA. How it is done:
DP-2 Binding Inhibition Assay
The coding sequence of human DP2 was introduced into the human Leukemic cell line K562 by electroporation and stable clones expressing DP2 were obtained by limiting dilution followed by cell surface staining with a rat monoclonal antibody specific for human DP2. Membranes were prepared from one of these DP2 expressing clones and used to determine the ability of compounds of the present invention to inhibit binding of prostaglandin D2 (PGD2) to its receptor DP2 in the presence of one or more of the following serum protein concentrations, 0.1% BSA, 1% HSA or 4% HSA, by the following procedure. Membranes (1.25 μg/well for 0.1% BSA and 6 μg/well for 1% or 4% HSA) were mixed with ^3H-labeled PGD2 and various concentrations of test compounds in 150 μL of binding buffer (50 mM Tris-HCl, pH 7.4, 40 mM MgCl2, 0.1% bovine serum albumin, 0.1% NaN3) in 96-well U-bottom polypropylene plates. After incubation for 60 minutes at room temperature, the assay was transferred to a filtration plate (#MAFB; Millipore Corporation, Bedford, Mass.), and washed three times with binding buffer. Radioactivity was measured by a scintillation counter (TopCount; PerkinElmer Life Sciences, Boston, Mass.). Nonspecific binding was determined by incubations in the presence of 1 μM unlabeled PGD2 or 5 μM of a known DP2 antagonist. EC50 values for inhibition of binding were determined for each compound tested from the inflexion point of a standard 4-parameter logistical curve fitted to the values obtained.
The molecule `O=C(NCCc1ccc(Cl)cc1)c1ccc(Oc2cc3c(cc2Cl)C(C(=O)O)CCO3)cc1` (single isomer, unassigned) [Example 11 Enantiomer 2, 6-Chloro-7-(4-(4-chlorophenethylcarbamoyl)phenoxy)chroman-4-carboxylic acid] yielded an EC50 of 9.3 nM.

Still in this assay, the particulars now being: EC50 (nM) 4% HSA, inhibition of 3H-PGD2 binding, 4% HSA.
The molecule `O=C(NCCc1ccc(Cl)cc1)c1ccc(Oc2cc3c(cc2Cl)C(C(=O)O)CCO3)cc1` (single isomer, unassigned) [Example 11 Enantiomer 2, 6-Chloro-7-(4-(4-chlorophenethylcarbamoyl)phenoxy)chroman-4-carboxylic acid] yielded an EC50 of 111 nM.

The same assay, now with this note: assay described in Example A.
Take `O=C(NCCc1ccc(Cl)cc1)c1ccc(Oc2cc3c(cc2Cl)C(C(=O)O)CCO3)cc1` (single isomer, unassigned) [Example 11 Enantiomer 2, 6-Chloro-7-(4-(4-chlorophenethylcarbamoyl)phenoxy)chroman-4-carboxylic acid]: the “relative activity of the enantiomers in the DP2 binding inhibition assay” value was “more potent DP2 binding enantiomer”.

Staying with this assay, now noted: read-out: EC50 (Nm) 1% HSA; inhibition of 3H-PGD2 binding, 1% HSA.
As for `N#Cc1cc2c(cc1Oc1ccc(C(=O)Nc3ccc(Cl)cc3)cc1)OCCC2C(=O)O` (stereo not drawn) [Example 74, 7-(4-(4-Chlorophenylcarbamoyl)phenoxy)-6-cyanochroman-4-carboxylic acid], the EC50 is 23.3 nM. On the same count and under the same terms, for `COc1cccc(CCNC(=O)c2ccc(Oc3cc4c(cc3C#N)C(C(=O)O)CCO4)cc2)c1` (stereo not drawn) [Example 48, 7-(4-((3-Methoxyphenethyl)carbamoyl)phenoxy)-6-cyano-3,4-dihydro-2H-chromene-4-carboxylic acid] the value was 30.7 nM; for `C[C@H](CNC(=O)c1ccc(Oc2cc3c(cc2C#N)C(C(=O)O)CCO3)cc1)c1ccccc1` (stereo partly drawn) [Example 131, 6-Cyano-7-(4-((S)-2-phenylpropylcarbamoyl)phenoxy)chroman-4-carboxylic acid], 59.3 nM; for `N#Cc1cc2c(cc1Oc1ccc(C(=O)NC3CC3c3ccccc3)cc1)OCCC2C(=O)O` (stereo not drawn) [Example 47, 7-(4-((2-Phenylcyclopropyl)carbamoyl)phenoxy)-6-cyano-3,4-dihydro-2H-chromene-4-carboxylic acid], 12.1 nM.

Consider `N#Cc1cc2c(cc1Oc1ccc(C(=O)Nc3ccc4c(c3)CNCC4)cc1)OCCC2C(=O)O` (stereo not drawn) [Example 45, 6-Cyano-7-(4-(1,2,3,4-tetrahydroisoquinolin-7-ylcarbamoyl)phenoxy)chroman-4-carboxylic acid hydrochloride], for which the EC50 came out at 1370 nM.

On to `N#Cc1cc2c(cc1Oc1ccc(C(=O)NOCc3ccc(Cl)cc3)cc1)OCCC2C(=O)O` (stereo not drawn) [Example 7, 7-(4-(4-Chlorobenzyloxycarbamoyl)phenoxy)-6-cyanochroman-4-carboxylic acid], for which the EC50 came to 19 nM. On the same count and under the same terms, the same measure for `N#Cc1cc2c(cc1Oc1ccc(C(=O)NCCc3ccc(C(F)(F)F)cc3)cc1)OCCC2C(=O)O` (stereo not drawn) [Example 50, 7-(4-((4-(Trifluoromethyl)phenethyl)carbamoyl)phenoxy)-6-cyano-3,4-dihydro-2H-chromene-4-carboxylic acid]: 11 nM. Same read-out and setting: the same measure for `CC(C)(C)c1ccc(CCNC(=O)c2ccc(Oc3cc4c(cc3C#N)C(C(=O)O)CCO4)cc2)cc1` (stereo not drawn) [Example 57, 7-(4-(4-tert-Butylphenethylcarbamoyl)phenoxy)-6-cyanochroman-4-carboxylic acid]: 18.9 nM.

Staying with this assay, now noted: read-out: EC50 (nM) 4% HSA; inhibition of 3H-PGD2 binding, 4% HSA.
In the case of `Cc1cc(C(=O)NCCc2ccc(Cl)cc2Cl)ccc1Oc1cc2c(cc1Cl)C(C(=O)O)CCO2` (stereo not drawn) [Example 182, Sodium 6-chloro-7-(4-(2,4-dichlorophenethylcarbamoyl)-2-methylphenoxy)chroman-4-carboxylate], the concentration giving a half-maximal response (EC50) came to 151 nM. Regarding `O=C(NC1CCC(c2ccc(Cl)cc2)CC1)c1ccc(Oc2cc3c(cc2Cl)C(C(=O)O)CCO3)cc1` (stereo not drawn) [Example 176, Sodium 6-chloro-7-(4-(4-(4-chlorophenyl)cyclohexylcarbamoyl)phenoxy)chroman-4-carboxylate], the EC50 was found to be 339 nM. With `COc1ccc(C2CCCC(NC(=O)c3ccc(Oc4cc5c(cc4Cl)C(C(=O)O)CCO5)cc3)C2)cc1` (stereo not drawn) [Example 161, 6-Chloro-7-(4-(3-(4-methoxyphenyl)cyclohexylcarbamoyl)phenoxy)chroman-4-carboxylic acid], the EC50 was determined as 1120 nM.

For the molecule `Cc1cc(Cl)ccc1CCNC(=O)c1ccc(Oc2cc3c(cc2Cl)C(C(=O)O)CCO3)cc1` (stereo not drawn) [Example 27, Sodium 6-chloro-7-(4-(4-chloro-2-methylphenethylcarbamoyl)phenoxy)chroman-4-carboxylate], the EC50 was found to be 216 nM. The same measure, in the same setting: for `O=C(NCCCCc1ccc(Cl)cc1Cl)c1ccc(Oc2cc3c(cc2Cl)C(C(=O)O)CCO3)cc1` (stereo not drawn) [Example 19, Sodium 6-chloro-7-(4-(4-(2,4-dichlorophenyl)butylcarbamoyl)phenoxy)chroman-4-carboxylate] the value was 638 nM; for `O=C(NCC1Cc2ccccc2C1)c1ccc(Oc2cc3c(cc2Cl)C(C(=O)O)CCO3)cc1` (stereo not drawn) [Example 111, Sodium 6-chloro-7-(4-((2,3-dihydro-1H-inden-2-yl)methylcarbamoyl)phenoxy)chroman-4-carboxylate], 174 nM. Still for that read-out and setting: the same measure for `O=C(NC1CCN(c2cccc(C(F)(F)F)c2)CC1)c1ccc(Oc2cc3c(cc2Cl)C(C(=O)O)CCO3)cc1` (stereo not drawn) [Example 123, Sodium 6-chloro-7-(4-(1-(3-(trifluoromethyl)phenyl)piperidin-4-ylcarbamoyl)phenoxy)chroman-4-carboxylate]: 259 nM.

For the molecule `Cc1ccccc1CCNC(=O)c1ccc(Oc2cc3c(cc2Cl)C(C(=O)O)CCO3)cc1` (stereo not drawn) [Example 20, Sodium 6-chloro-7-(4-(2-methylphenethylcarbamoyl)phenoxy)chroman-4-carboxylate], the 50% effective concentration (EC50) is 759 nM. The same measure, in the same setting: the same measure for `O=C(NCCC1CC1)c1ccc(Oc2cc3c(cc2Cl)C(C(=O)O)CCO3)cc1` (stereo not drawn) [Example 25, Sodium 6-chloro-7-(4-(2-cyclopropylethylcarbamoyl)phenoxy)chroman-4-carboxylate]: 3330 nM. In the case of `O=C(NCCc1ccc(F)cc1Cl)c1ccc(Oc2cc3c(cc2Cl)C(C(=O)O)CCO3)cc1` (stereo not drawn) [Example 97, Sodium 6-chloro-7-(4-(2-chloro-4-fluorophenethylcarbamoyl)phenoxy)chroman-4-carboxylate], the EC50 was found to be 190 nM. Same read-out and setting: for `O=C(NC1CCC(c2ccccc2)C1)c1ccc(Oc2cc3c(cc2Cl)C(C(=O)O)CCO3)cc1` (stereo not drawn) [Example 165, 6-chloro-7-(4-(3-phenylcyclopentylcarbamoyl)phenoxy)chroman-4-carboxylic acid] the value was 401 nM. With `CC(C)(C)c1ccc(CCNC(=O)c2ccc(Oc3cc4c(cc3Cl)C(C(=O)O)CCO4)cc2)cc1` (stereo not drawn) [Example 142, Sodium 7-(4-(4-tert-butylphenethylcarbamoyl)phenoxy)-6-chlorochroman-4-carboxylate], the EC50 worked out at 140 nM. `O=C(NCCc1ccc(Cl)cc1F)c1ccc(Oc2cc3c(cc2Cl)C(C(=O)O)CCO3)cc1` (stereo not drawn) [Example 230, 6-chloro-7-(4-(4-chloro-2-fluorophenethylcarbamoyl)phenoxy)chroman-4-carboxylic acid]: the EC50 stood at 243 nM. On to `O=C(NCCc1ccc(Cl)cc1Cl)c1ccc(Oc2c(Cl)cc3c(c2C2CC2)OCCC3C(=O)O)cc1` (stereo not drawn) [Example 43, Sodium 6-chloro-8-cyclopropyl-7-(4-(2,4-dichlorophenethylcarbamoyl)phenoxy)chroman-4-carboxylate], for which the EC50 worked out at 51.5 nM. As to `O=C(NCCc1ccc(SC(F)(F)F)cc1)c1ccc(Oc2cc3c(cc2Cl)C(C(=O)O)CCO3)cc1` (stereo not drawn) [Example 147, Sodium 6-chloro-7-(4-(4-(trifluoromethylthio)phenethylcarbamoyl)phenoxy)chroman-4-carboxylate], the concentration giving a half-maximal response (EC50) was 240 nM.

As for `COc1ccc(Br)cc1CCNC(=O)c1ccc(Oc2cc3c(cc2Cl)C(C(=O)O)CCO3)cc1` (stereo not drawn) [Example 90, Sodium 7-(4-(5-bromo-2-methoxyphenethylcarbamoyl)phenoxy)-6-chlorochroman-4-carboxylate], the EC50 worked out at 153 nM. The same measure, in the same setting: the same measure for `O=C(NCCOc1ccccc1Cl)c1ccc(Oc2cc3c(cc2Cl)C(C(=O)O)CCO3)cc1` (stereo not drawn) [Example 115, Sodium 6-chloro-7-(4-(2-(2-chlorophenoxyl)ethylcarbamoyl)phenoxy)chroman-4-carboxylate]: 2440 nM; for `Cc1ccc(C2CCCC(NC(=O)c3ccc(Oc4cc5c(cc4Cl)C(C(=O)O)CCO5)cc3)C2)cc1` (stereo not drawn) [Example 160, 6-Chloro-7-(4-(3-(4-methylphenyl)cyclohexylcarbamoyl)phenoxy)chroman-4-carboxylic acid]: 350 nM; for `CN(C)Cc1ccc(CCNC(=O)c2ccc(Oc3cc4c(cc3C#N)C(C(=O)O)CCO4)cc2)cc1` (stereo not drawn) [Example 44, 6-Cyano-7-(4-(4-((dimethylamino)methyl)phenethylcarbamoyl)phenoxy)chroman-4-carboxylic acid]: 3480 nM. On the same count and under the same terms, for `Cc1cccc(-c2cccc(NC(=O)c3ccc(Oc4cc5c(cc4C#N)C(C(=O)O)CCO5)cc3)c2)c1` (stereo not drawn) [Example 108, 6-Cyano-7-(4-(3′-methylbiphenyl-3-ylcarbamoyl)phenoxy)chroman-4-carboxylic acid] the value was 69.3 nM. On the same count and under the same terms, for `O=C(NCCC1CCCC1)c1ccc(Oc2cc3c(cc2Cl)C(C(=O)O)CCO3)cc1` (stereo not drawn) [Example 186, Sodium 6-chloro-7-(4-(2-cyclopentylethylcarbamoyl)phenoxy)chroman-4-carboxylate] the value was 538 nM; for `O=C(NCCc1ccccc1-c1cccc(Cl)c1)c1ccc(Oc2cc3c(cc2Cl)C(C(=O)O)CCO3)cc1` (stereo not drawn) [Example 95, Sodium 6-chloro-7-(4-(2-(3′-chlorobiphenyl-2-yl)ethylcarbamoyl)phenoxy)chroman-4-carboxylate], 91.8 nM.

For the origin of these results see US9556139B2, “6-substituted phenoxychroman carboxylic acid derivatives” (Array BioPharma Inc., priority 2008, dated 2017).
